Article PMC3585822, “The ancestral activation promiscuity of ADP-glucose pyrophosphorylases from oxygenic photosynthetic organisms” (BMC Evolutionary Biology, 2013)
pEC50: −log10 of the molar value. Like-named read-outs stand apart in the source and are kept apart here.

What was measured:
Test in all cases: ADP-[…]Glc synthesis from […]Glc1P, modified Hill fit
[1] = target: T1, ADP-Glc PPase from Anabaena (Nostoc sp. PCC 7120 = FACHB-418, UniProt P30521); type: biochemical; details: read-out: A0.5
T1 construct: gene glgC; recombinant homotetramer from E. coli AC70R1-504, purified
T1 sequence (P30521 1-429): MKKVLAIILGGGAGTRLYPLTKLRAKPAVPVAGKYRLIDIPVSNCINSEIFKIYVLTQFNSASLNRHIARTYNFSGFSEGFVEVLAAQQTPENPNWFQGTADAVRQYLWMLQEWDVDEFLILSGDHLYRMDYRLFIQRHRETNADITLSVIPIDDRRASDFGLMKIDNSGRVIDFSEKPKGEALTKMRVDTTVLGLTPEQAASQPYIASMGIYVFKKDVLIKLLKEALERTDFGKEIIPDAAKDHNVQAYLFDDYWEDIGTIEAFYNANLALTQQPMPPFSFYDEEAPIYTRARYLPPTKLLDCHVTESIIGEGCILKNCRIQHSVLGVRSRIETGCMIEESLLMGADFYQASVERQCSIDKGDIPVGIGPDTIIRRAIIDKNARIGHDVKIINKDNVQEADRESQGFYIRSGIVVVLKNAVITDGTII

OtaS = test system: T2, OtaS; type: biochemical, Ostreococcus tauri; details: allosteric activator; 1 mM ATP, 1 mM Glc1P, 7 mM MgCl2, pH 8.0, 37 °C; read-out: A0.5
T2 construct: recombinant small subunit homotetramer from E. coli AC70R1-504, purified; plasmid pMAB5 or pMAB6

OtaS/OtaL [2] = test system: T3, OtaS/OtaL; type: biochemical, Ostreococcus tauri; details: allosteric activator; 1 mM ATP, 1 mM Glc1P, 7 mM MgCl2, pH 8.0, 37 °C; non-catalytic OtaS with wild-type OtaL; read-out: A0.5
T3 construct: recombinant S2L2 heterotetramer co-expressed in E. coli AC70R1-504, purified

OtaS/OtaL [3] = test system: T3, OtaS/OtaL; type: biochemical, Ostreococcus tauri; details: allosteric activator; 1 mM ATP, 1 mM Glc1P, 7 mM MgCl2, pH 8.0, 37 °C; non-catalytic OtaL with wild-type OtaS; read-out: A0.5
OtaS/OtaL [4] = test system: T3, OtaS/OtaL; type: biochemical, Ostreococcus tauri; details: allosteric activator; 1 mM ATP, 1 mM Glc1P, 7 mM MgCl2, pH 8.0, 37 °C; read-out: A0.5
[5] = allosteric activator, 1 mM ATP, 1 mM Glc1P, 7 mM MgCl2, pH 8.0, 37 °C

pEC50 [1]	pEC50 (OtaS)	pEC50 (OtaS/OtaL [2])	pEC50 (OtaS/OtaL [3])	pEC50 (OtaS/OtaL [4])	pEC50 [1, 5]	SMILES
4.12	2.92	5.52	4.17	3.27	–	O=C(O)[C@H](O)COP(=O)(O)O [3-PGA]
–	2.96	2.09	2.82	2.96	3.52	O=P(O)(O)OC[C@H]1OC(O)(COP(=O)(O)O)[C@@H](O)[C@@H]1O (stereo partly shown) [FBP]
–	2.72	–	–	1.82	2.80	O=P(O)(O)OC[C@H]1OC(O)(CO)[C@@H](O)[C@@H]1O (stereo partly shown) [Fru6P]
–	2.00	–	–	1.12	3.40	O=P(O)(O)OC[C@H]1OC(O)[C@H](O)[C@@H](O)[C@@H]1O (stereo partly shown) [Glc6P]
